Results on 6 compounds are retold here after US11059766B2, “Ethynyl derivatives” (Hoffmann-La Roche Inc., priority 2015, dated 2021).

As usually defined, the EC50 is the concentration needed to bring the measured effect to its halfway point. What is called Ki is the dissociation constant of the complex between target and ligand, obtained from inhibition or displacement.

The target of test [1] is T1, human mGlu5a receptor (Homo sapiens (Human), UniProt P41594). Briefly: MPEP binding assay ([3H]MPEP displacement). The following applies: for EC50: [3H]MPEP 2 nM, EBNA cell membranes, read-out: mGlu5-MPEP binding EC50; for Ki: comparison table. The procedure: For binding experiments, cDNA encoding human mGlu5a receptor was transiently transfected into EBNA cells using a procedure described by Schlaeger and Christensen [Cytotechnology 15:1-13 (1998)]. Cell membrane homogenates were stored at −80° C. until the day of assay where upon they were thawed and resuspended and polytronised in 15 mM Tris-HCl, 120 mM NaCl, 100 mM KCl, 25 mM CaCl2, 25 mM MgCl2 binding buffer at pH 7.4 to a final assay concentration of 20 μg protein/well.
Saturation isotherms were determined by addition of twelve [^3H]MPEP concentrations (0.04-100 nM) to these membranes (in a total volume of 200 μl) for 1 h at 4° C. Competition experiments were performed with a fixed concentration of [^3H]MPEP (2 nM) and IC50 values of test compounds evaluated using 11 concentrations (0.3-10,000 nM). Incubations were performed for 1 h at 4° C.
At the end of the incubation, membranes were filtered onto unifilter (96-well white microplate with bonded GF/C filter preincubated 1 h in 0.1% PEI in wash buffer, Packard BioScience, Meriden, Conn.) with a Filtermate 96 harvester (Packard BioScience) and washed 3 times with cold 50 mM Tris-HCl, pH 7.4 buffer. Nonspecific binding was measured in the presence of 10 μM MPEP. The radioactivity on the filter was counted (3 min) on a Packard Top-count microplate scintillation counter with quenching correction after addition of 45 μl of microscint 40 (Canberra Packard S. A., Zürich, Switzerland) and shaking for 20 min.

A short description of test [2]: rat Vogel conflict drinking test. The class given is in vivo.
The target in test [3] is T1, human mGlu5a receptor. Description: Intracellular Ca2+ mobilization assay (mGlu5 PAM assay). The note with it: for mGlu5 PAM EC50: HEK-293 cells, glutamate at EC20; for Activity profile: PAM or NAM; for EC50 (nM) mGlu5 PAM assay: comparison table; for Efficacy: maximal response in % of maximal stimulatory effect of saturating L-glutamate. The class given is cell-based. As to the method:
A monoclonal HEK-293 cell line stably transfected with a cDNA encoding for the human mGlu5a receptor was generated; for the work with mGlu5 Positive Allosteric Modulators (PAMs), a cell line with low receptor expression levels and low constitutive receptor activity was selected to allow the differentiation of agonistic versus PAM activity. Cells were cultured according to standard protocols (Freshney, 2000) in Dulbecco's Modified Eagle Medium with high glucose supplemented with 1 mM glutamine, 10% (vol/vol) heat-inactivated bovine calf serum, Penicillin/Streptomycin, 50 μg/ml hygromycin and 15 μg/ml blasticidin (all cell culture reagents and antibiotics from Invitrogen, Basel, Switzerland).
About 24 hrs before an experiment, 5×10^4 cells/well were seeded in poly-D-lysine coated, black/clear-bottomed 96-well plates. The cells were loaded with 2.5 μM Fluo-4AM in loading buffer (1×HBSS, 20 mM HEPES) for 1 hr at 37° C. and washed five times with loading buffer. The cells were transferred into a Functional Drug Screening System 7000 (Hamamatsu, Paris, France), and 11 half logarithmic serial dilutions of test compound at 37° C. were added and the cells were incubated for 10-30 min with on-line recording of fluorescence. Following this pre-incubation step, the agonist L-glutamate was added to the cells at a concentration corresponding to EC20 (typically around 80 μM) with on-line recording of fluorescence; in order to account for day-to-day variations in the responsiveness of cells, the EC20 of glutamate was determined immediately ahead of each experiment by recording of a full dose-response curve of glutamate.
Responses were measured as peak increase in fluorescence minus basal (i.e. fluorescence without addition of L-glutamate), normalized to the maximal stimulatory effect obtained with saturating concentrations of L-glutamate. Graphs were plotted with the % maximal stimulatory using XLfit, a curve fitting program that iteratively plots the data using Levenburg Marquardt algorithm. The single site competition analysis equation used was y=A+((B−A)/(1+((x/C)D))), where y is the % maximal stimulatory effect, A is the minimum y, B is the maximum y, C is the EC50, x is the log 10 of the concentration of the competing compound and D is the slope of the curve (the Hill Coefficient). From these curves the EC50 (concentration at which half maximal stimulation was achieved), the Hill coefficient as well as the maximal response in % of the maximal stimulatory effect obtained with saturating concentrations of L-glutamate were calculated.
A depression of the signal observed after addition of the EC20 concentration of L-glutamate was indicative of an inhibitory activity of the test compound.

T1 sequence (P41594 other isoform, or with tags, fused parts or gaps): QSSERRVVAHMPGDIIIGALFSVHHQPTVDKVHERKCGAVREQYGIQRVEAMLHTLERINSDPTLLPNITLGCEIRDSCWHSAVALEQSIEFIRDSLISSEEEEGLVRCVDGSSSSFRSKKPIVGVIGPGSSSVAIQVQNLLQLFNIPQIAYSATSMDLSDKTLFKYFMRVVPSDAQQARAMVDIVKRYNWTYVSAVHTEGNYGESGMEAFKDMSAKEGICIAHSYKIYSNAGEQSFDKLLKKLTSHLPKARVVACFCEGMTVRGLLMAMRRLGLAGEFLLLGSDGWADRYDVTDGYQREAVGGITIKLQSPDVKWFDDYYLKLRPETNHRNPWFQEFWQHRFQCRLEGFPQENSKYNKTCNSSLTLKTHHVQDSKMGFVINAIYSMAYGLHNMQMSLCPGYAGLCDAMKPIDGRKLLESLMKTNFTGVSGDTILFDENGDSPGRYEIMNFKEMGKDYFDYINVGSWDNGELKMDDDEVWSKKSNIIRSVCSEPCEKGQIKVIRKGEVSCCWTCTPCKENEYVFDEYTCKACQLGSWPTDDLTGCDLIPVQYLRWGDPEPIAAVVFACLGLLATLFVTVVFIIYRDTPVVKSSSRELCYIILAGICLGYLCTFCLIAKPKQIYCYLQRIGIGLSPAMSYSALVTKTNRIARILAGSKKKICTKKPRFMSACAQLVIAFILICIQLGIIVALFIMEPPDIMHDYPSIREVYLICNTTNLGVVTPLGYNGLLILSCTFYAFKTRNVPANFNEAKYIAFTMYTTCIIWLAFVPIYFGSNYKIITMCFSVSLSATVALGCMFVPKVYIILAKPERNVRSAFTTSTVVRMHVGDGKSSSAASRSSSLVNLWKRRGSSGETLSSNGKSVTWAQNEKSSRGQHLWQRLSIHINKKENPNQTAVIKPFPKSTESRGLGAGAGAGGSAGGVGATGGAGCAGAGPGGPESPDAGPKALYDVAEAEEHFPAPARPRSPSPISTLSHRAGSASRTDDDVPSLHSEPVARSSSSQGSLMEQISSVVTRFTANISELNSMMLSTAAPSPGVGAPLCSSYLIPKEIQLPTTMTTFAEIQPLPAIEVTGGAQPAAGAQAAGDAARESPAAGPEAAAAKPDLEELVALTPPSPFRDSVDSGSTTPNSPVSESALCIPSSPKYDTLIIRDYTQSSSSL

With `CN1C(=O)N(c2ccc(C#Cc3ccccc3)cn2)[C@@H]2CC[C@@H]21` [Example 1, (−)-(1 S,5R)-2-methyl-4-(5-(phenylethynyl)pyridin-2-yl)-2,4-diazabicyclo[3.2.0]heptan-3-one], on human mGlu5a receptor [1], the EC50 was 9 nM and the Ki is 9 nM. Besides, the “minimal effective dose (anxiolytic activity)” value in test [2] was 0.1 mg/kg. At human mGlu5a receptor [3], the “mGlu5 PAM EC50” value is “inactive”, the Activity profile entry was “NAM” and the “EC50 (nM) mGlu5 PAM assay” value was “inactive”.
As to `CN1C(=O)N(c2ccc(C#Cc3cc(F)ccc3F)cn2)[C@@H]2CC[C@@H]21` [Example 4, (−)-(1R,5S)-2-[5-(2,5-Difluoro-phenylethynyl)-pyridin-2-yl]-4-methyl-2,4-diazabicyclo[3.2.0]heptan-3-one], on human mGlu5a receptor [1], the EC50 worked out at 3 nM and the Ki is 3 nM. For the same compound, at human mGlu5a receptor [3], the “mGlu5 PAM EC50” value was “inactive”, the Activity profile entry is recorded as “NAM” and the “EC50 (nM) mGlu5 PAM assay” value is “inactive”.
For `CN1C(=O)N(c2ccc(C#Cc3cccc(F)c3)cn2)[C@@H]2CC[C@@H]21` [Example 2, (−)-(1R,5S)-2-[5-(3-Fluoro-phenylethynyl)-pyridin-2-yl]-4-methyl-2,4-diazabicyclo[3.2.0]heptan-3-one], at human mGlu5a receptor [1], the EC50 came out at 5 nM and the Ki amounted to 5 nM. At human mGlu5a receptor [3], the “mGlu5 PAM EC50” value was “inactive”, the Activity profile result was “NAM” and the “EC50 (nM) mGlu5 PAM assay” value is “inactive”.
Consider `CN1C(=O)N(c2ccc(C#Cc3ccc(F)cc3)cn2)[C@@H]2CC[C@@H]21` [Example 3, (−)-(1R,5S)-2-[5-(4-Fluoro-phenylethynyl)-pyridin-2-yl]-4-methyl-2,4-diazabicyclo[3.2.0]heptan-3-one], for which, on human mGlu5a receptor [1], the EC50 was 4 nM and the Ki was determined as 4 nM. At human mGlu5a receptor [3], the “mGlu5 PAM EC50” value was “inactive”, the Activity profile result is given as “NAM” and the “EC50 (nM) mGlu5 PAM assay” value is “inactive”.
`CN1C(=O)N(c2ccc(C#Cc3ccccc3)cn2)[C@@H]2CCC[C@@H]21` [Ref. 1; Ex. 106, reference compound]: at human mGlu5a receptor [1], the Ki amounted to 8 nM. For the same compound, at human mGlu5a receptor [3], the Activity profile entry is “PAM” and the Efficacy is listed as 42%.
`CN1C(=O)N(c2ccc(C#Cc3cccc(F)c3)cn2)[C@@H]2CCC[C@@H]21` [Ref. 1; Ex. 109, reference compound]: on human mGlu5a receptor [1], the EC50 came out at 12 nM and the Ki was determined as 37 nM. Moreover, at human mGlu5a receptor [3], the Activity profile result was “PAM” and the Efficacy was 37%.
